Measured values as given in the kinase profiling compilation of Christmann-Franck et al. (2016).

Legend:
Test in all cases: radiometric filter-binding kinase assay
TTK (human) = TTK (human) (UniProt P33981)
PRKAA1 or PRKAA2 (rat) = details: accession and sequence are those of the human protein
INSRR (human) = INSRR (human) (UniProt P14616)
PRKACA (human) = PRKACA (human) (UniProt P17612)
MKNK2 (human) = MKNK2 (human) (UniProt Q9HBH9)
RPS6KA1 KD1 KD2 (human) = RPS6KA1 KD1 KD2 (human) (UniProt Q15418)
CSNK1D (human) = CSNK1D (human) (UniProt P48730)
MAPK14 (human) = MAPK14 (human) (UniProt Q16539)
RPS6KA5 KD1 KD2 (human) = RPS6KA5 KD1 KD2 (human) (UniProt O75582)
SRC (human) = SRC (human) (UniProt P12931)
[1] = tested on: AKT2 (human), P31751 [S474D]
NEK2 (human) = NEK2 (human) (UniProt P51955)
EPHB1 (human) = EPHB1 (human) (UniProt P54762)
NEK6 (human) = NEK6 (human) (UniProt Q9HC98)
MAPKAPK3 (human) = MAPKAPK3 (human) (UniProt Q16644)
CSK (human) = CSK (human) (UniProt P41240)
SYK (human) = SYK (human) (UniProt P43405)
PIM2 (human) = PIM2 (human) (UniProt Q9P1W9)
MAPK1 (human) = MAPK1 (human) (UniProt P28482)
MAPK15 (human) = MAPK15 (human) (UniProt Q8TD08)
MAPK3 (human) = MAPK3 (human) (UniProt P27361)
IKBKE (human) = IKBKE (human) (UniProt Q14164)
FLT1 (human) = FLT1 (human) (UniProt P17948)
PAK7 (human) = PAK7 (human) (UniProt Q9P286)
[2] = tested on: RPS6KB1 (human), P23443 [T412E]
CDK2 CCNA2 (human) = CDK2 CCNA2 (human) (UniProt P20248+P24941)
RIPK2 (human) = RIPK2 (human) (UniProt O43353)
EPHB4 (human) = EPHB4 (human) (UniProt P54760)
IKBKB (human) = IKBKB (human) (UniProt O14920)
RPS6KA3 KD1 KD2 (human) = RPS6KA3 KD1 KD2 (human) (UniProt P51812)
PLK1 (human) = PLK1 (human) (UniProt P53350)
MAP2K1 (human) = MAP2K1 (human) (UniProt Q02750)
BTK (human) = BTK (human) (UniProt Q06187)
EPHA4 (human) = EPHA4 (human) (UniProt P54764)
CHEK2 (human) = CHEK2 (human) (UniProt O96017)

Sequence of PAK7 (human) (Q9P286 whole entry, looked up): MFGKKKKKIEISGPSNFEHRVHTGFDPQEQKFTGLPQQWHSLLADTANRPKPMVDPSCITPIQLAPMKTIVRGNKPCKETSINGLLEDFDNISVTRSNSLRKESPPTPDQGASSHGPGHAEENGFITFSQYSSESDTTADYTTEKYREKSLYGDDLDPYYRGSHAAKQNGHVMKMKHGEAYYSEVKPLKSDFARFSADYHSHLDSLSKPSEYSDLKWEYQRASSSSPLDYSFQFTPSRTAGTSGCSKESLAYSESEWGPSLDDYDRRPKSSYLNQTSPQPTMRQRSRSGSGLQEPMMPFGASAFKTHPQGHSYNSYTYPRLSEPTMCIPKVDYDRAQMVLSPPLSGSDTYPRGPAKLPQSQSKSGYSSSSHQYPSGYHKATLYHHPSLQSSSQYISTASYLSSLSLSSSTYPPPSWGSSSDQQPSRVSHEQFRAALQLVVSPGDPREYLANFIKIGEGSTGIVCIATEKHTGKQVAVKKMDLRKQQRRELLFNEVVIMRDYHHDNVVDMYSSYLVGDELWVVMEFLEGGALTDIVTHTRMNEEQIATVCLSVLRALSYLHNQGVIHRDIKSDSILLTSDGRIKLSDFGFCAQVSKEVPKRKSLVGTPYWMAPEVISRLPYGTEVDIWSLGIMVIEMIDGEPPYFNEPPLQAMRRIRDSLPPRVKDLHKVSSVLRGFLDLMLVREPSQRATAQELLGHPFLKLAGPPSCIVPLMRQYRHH
Sequence of NEK2 (human) (P51955 whole entry, looked up): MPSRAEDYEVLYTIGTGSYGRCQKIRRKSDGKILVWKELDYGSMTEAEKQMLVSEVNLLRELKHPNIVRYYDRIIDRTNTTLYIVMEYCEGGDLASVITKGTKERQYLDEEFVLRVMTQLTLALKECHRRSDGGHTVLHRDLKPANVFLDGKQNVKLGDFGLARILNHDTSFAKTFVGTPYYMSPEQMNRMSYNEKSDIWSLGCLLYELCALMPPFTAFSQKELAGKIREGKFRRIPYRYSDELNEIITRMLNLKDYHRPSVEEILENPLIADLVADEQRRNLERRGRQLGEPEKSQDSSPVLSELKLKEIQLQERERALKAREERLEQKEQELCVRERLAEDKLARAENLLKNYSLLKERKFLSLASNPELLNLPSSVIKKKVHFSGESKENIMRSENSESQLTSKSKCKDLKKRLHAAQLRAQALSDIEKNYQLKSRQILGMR
Sequence of EPHB1 (human) (P54762 whole entry, looked up): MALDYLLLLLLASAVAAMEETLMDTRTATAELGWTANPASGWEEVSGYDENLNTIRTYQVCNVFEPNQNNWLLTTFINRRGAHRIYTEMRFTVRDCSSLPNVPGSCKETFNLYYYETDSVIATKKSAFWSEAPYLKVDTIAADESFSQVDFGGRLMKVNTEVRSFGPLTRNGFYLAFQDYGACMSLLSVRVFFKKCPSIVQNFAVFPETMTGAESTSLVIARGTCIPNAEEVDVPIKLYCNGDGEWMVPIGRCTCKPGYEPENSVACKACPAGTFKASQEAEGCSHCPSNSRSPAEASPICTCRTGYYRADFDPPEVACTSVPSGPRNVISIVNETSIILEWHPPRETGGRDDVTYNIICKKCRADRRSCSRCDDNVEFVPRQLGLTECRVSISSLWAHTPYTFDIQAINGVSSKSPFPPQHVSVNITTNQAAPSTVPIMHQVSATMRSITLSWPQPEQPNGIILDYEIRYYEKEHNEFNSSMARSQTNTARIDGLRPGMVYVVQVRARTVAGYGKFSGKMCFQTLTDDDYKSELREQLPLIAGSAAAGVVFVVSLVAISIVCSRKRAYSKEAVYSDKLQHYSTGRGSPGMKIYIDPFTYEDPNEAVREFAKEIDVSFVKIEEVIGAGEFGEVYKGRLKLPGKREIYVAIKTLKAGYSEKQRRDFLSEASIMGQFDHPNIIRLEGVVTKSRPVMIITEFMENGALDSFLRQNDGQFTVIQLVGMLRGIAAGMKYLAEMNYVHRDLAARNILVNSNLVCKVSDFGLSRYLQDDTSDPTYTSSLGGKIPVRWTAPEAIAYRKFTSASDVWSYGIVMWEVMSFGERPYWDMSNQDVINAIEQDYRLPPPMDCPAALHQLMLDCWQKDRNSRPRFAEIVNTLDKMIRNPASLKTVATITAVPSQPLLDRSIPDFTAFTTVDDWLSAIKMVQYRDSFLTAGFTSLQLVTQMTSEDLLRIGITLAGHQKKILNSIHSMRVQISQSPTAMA
Sequence of PLK1 (human) (P53350 whole entry, looked up): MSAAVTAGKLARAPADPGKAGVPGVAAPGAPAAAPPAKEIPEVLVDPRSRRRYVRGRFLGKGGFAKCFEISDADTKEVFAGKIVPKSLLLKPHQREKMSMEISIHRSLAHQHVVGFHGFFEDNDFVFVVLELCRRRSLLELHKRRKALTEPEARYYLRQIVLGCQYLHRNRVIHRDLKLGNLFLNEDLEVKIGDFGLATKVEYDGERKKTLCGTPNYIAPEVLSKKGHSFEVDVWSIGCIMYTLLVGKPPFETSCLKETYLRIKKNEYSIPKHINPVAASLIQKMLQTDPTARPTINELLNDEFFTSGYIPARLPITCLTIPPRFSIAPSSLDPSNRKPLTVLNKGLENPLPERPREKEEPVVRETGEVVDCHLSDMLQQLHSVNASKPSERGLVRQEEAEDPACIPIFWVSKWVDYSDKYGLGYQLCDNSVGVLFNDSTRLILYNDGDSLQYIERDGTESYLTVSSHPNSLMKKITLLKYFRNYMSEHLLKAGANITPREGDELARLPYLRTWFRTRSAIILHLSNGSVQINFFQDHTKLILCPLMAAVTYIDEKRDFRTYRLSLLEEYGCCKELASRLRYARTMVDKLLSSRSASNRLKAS
Sequence of RPS6KA3 KD1 KD2 (human) (P51812 whole entry, looked up): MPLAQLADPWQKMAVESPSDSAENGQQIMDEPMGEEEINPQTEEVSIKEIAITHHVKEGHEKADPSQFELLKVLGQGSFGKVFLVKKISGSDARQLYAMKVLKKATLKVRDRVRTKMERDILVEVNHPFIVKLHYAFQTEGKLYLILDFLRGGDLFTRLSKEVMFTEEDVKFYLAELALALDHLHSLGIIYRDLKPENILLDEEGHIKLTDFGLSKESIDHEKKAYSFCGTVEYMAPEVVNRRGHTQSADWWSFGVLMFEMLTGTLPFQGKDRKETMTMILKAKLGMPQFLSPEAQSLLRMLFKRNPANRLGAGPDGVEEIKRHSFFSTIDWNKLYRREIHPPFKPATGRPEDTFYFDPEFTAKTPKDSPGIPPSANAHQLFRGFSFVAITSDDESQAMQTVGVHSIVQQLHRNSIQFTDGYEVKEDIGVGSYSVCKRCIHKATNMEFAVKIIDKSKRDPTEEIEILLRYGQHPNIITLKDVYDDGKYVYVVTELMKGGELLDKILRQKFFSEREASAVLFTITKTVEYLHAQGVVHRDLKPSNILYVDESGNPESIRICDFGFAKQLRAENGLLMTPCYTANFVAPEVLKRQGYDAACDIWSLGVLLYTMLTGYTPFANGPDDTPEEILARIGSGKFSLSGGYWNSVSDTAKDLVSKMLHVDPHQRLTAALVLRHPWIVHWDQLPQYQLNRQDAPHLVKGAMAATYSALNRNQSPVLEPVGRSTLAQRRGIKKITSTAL
Sequence of MAPK15 (human) (Q8TD08 whole entry, looked up): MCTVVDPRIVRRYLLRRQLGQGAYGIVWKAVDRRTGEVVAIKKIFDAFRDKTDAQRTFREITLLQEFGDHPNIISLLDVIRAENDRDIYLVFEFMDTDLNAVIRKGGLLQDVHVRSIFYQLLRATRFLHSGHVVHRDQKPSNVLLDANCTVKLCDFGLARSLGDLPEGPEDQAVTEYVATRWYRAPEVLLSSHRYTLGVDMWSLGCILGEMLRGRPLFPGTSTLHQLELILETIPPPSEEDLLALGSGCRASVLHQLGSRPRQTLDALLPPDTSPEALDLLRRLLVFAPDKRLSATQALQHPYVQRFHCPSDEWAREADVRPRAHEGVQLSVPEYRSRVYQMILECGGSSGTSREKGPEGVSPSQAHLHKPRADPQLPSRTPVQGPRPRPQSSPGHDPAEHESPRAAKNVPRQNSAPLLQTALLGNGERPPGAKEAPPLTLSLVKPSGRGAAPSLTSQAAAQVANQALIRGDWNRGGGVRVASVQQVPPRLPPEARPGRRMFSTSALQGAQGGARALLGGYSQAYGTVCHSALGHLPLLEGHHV
Sequence of CSNK1D (human) (P48730 whole entry, looked up): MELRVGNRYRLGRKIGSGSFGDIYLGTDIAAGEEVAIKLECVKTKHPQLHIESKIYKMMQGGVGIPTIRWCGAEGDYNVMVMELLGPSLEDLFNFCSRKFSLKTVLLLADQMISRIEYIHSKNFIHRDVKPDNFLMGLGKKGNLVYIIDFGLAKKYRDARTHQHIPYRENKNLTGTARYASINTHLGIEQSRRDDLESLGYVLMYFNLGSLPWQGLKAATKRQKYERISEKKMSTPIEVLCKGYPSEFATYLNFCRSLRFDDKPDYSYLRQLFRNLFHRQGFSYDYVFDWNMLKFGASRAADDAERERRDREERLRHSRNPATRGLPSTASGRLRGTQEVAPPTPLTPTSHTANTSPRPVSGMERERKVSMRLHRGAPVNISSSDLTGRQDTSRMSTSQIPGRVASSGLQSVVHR
Sequence of MAPK1 (human) (P28482 whole entry, looked up): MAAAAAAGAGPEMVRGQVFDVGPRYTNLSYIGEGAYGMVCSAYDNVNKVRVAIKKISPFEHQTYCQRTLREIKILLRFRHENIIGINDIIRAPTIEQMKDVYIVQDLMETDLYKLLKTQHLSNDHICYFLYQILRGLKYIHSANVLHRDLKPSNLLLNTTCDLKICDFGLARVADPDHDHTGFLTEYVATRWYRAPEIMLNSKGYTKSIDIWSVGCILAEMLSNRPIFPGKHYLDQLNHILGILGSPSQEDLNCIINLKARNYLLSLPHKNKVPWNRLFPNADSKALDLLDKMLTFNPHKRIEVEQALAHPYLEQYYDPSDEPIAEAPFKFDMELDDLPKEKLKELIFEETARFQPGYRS

## CCCCCc1ccc(/C=C/[C@H](O)[C@@H](CO)NC)cc1
TTK (human); compound 0.1 µM
  residual activity: 95%
TTK (human); compound 1.0 µM
  residual activity: 91%
TTK (human); compound 10.0 µM
  residual activity: 86%
PRKAA1 or PRKAA2 (rat); compound 0.1 µM
  residual activity: 104%
PRKAA1 or PRKAA2 (rat); compound 1.0 µM
  residual activity: 96%
PRKAA1 or PRKAA2 (rat); compound 10.0 µM
  residual activity: 94%
INSRR (human); compound 0.1 µM
  residual activity: 99%
INSRR (human); compound 1.0 µM
  residual activity: 94%
INSRR (human); compound 10.0 µM
  residual activity: 100%
PRKACA (human); compound 0.1 µM
  residual activity: 110%
PRKACA (human); compound 1.0 µM
  residual activity: 106%
PRKACA (human); compound 10.0 µM
  residual activity: 107%
MKNK2 (human); compound 0.1 µM
  residual activity: 111%
MKNK2 (human); compound 1.0 µM
  residual activity: 98%
MKNK2 (human); compound 10.0 µM
  residual activity: 102%
RPS6KA1 KD1 KD2 (human); compound 0.1 µM
  residual activity: 95%
RPS6KA1 KD1 KD2 (human); compound 1.0 µM
  residual activity: 98%
RPS6KA1 KD1 KD2 (human); compound 10.0 µM
  residual activity: 81%
CSNK1D (human); compound 0.1 µM
  residual activity: 88%
CSNK1D (human); compound 1.0 µM
  residual activity: 87%
CSNK1D (human); compound 10.0 µM
  residual activity: 81%
MAPK14 (human); compound 0.1 µM
  residual activity: 95%
MAPK14 (human); compound 1.0 µM
  residual activity: 87%
MAPK14 (human); compound 10.0 µM
  residual activity: 80%
RPS6KA5 KD1 KD2 (human); compound 0.1 µM
  residual activity: 110%
RPS6KA5 KD1 KD2 (human); compound 1.0 µM
  residual activity: 104%
RPS6KA5 KD1 KD2 (human); compound 10.0 µM
  residual activity: 95%
SRC (human); compound 0.1 µM
  residual activity: 105%
SRC (human); compound 1.0 µM
  residual activity: 100%
SRC (human); compound 10.0 µM
  residual activity: 111%
[1]; compound 0.1 µM
  residual activity: 85%
[1]; compound 1.0 µM
  residual activity: 90%
[1]; compound 10.0 µM
  residual activity: 86%
NEK2 (human); compound 0.1 µM
  residual activity: 110%
NEK2 (human); compound 1.0 µM
  residual activity: 103%
NEK2 (human); compound 10.0 µM
  residual activity: 108%
EPHB1 (human); compound 0.1 µM
  residual activity: 126%
EPHB1 (human); compound 1.0 µM
  residual activity: 108%
EPHB1 (human); compound 10.0 µM
  residual activity: 115%
NEK6 (human); compound 0.1 µM
  residual activity: 92%
NEK6 (human); compound 1.0 µM
  residual activity: 86%
NEK6 (human); compound 10.0 µM
  residual activity: 84%
MAPKAPK3 (human); compound 0.1 µM
  residual activity: 115%
MAPKAPK3 (human); compound 1.0 µM
  residual activity: 119%
MAPKAPK3 (human); compound 10.0 µM
  residual activity: 123%
CSK (human); compound 0.1 µM
  residual activity: 104%
CSK (human); compound 1.0 µM
  residual activity: 101%
CSK (human); compound 10.0 µM
  residual activity: 98%
SYK (human); compound 0.1 µM
  residual activity: 134%
SYK (human); compound 1.0 µM
  residual activity: 105%
SYK (human); compound 10.0 µM
  residual activity: 92%
PIM2 (human); compound 0.1 µM
  residual activity: 103%
PIM2 (human); compound 1.0 µM
  residual activity: 109%
PIM2 (human); compound 10.0 µM
  residual activity: 97%
MAPK1 (human); compound 0.1 µM
  residual activity: 98%
MAPK1 (human); compound 1.0 µM
  residual activity: 90%
MAPK1 (human); compound 10.0 µM
  residual activity: 100%
MAPK15 (human); compound 0.1 µM
  residual activity: 82%
MAPK15 (human); compound 1.0 µM
  residual activity: 86%
MAPK15 (human); compound 10.0 µM
  residual activity: 77%
MAPK3 (human); compound 1.0 µM
  residual activity: 97%
MAPK3 (human); compound 10.0 µM
  residual activity: 85%
IKBKE (human); compound 0.1 µM
  residual activity: 106%
IKBKE (human); compound 1.0 µM
  residual activity: 95%
IKBKE (human); compound 10.0 µM
  residual activity: 86%
FLT1 (human); compound 0.1 µM
  residual activity: 95%
FLT1 (human); compound 1.0 µM
  residual activity: 81%
FLT1 (human); compound 10.0 µM
  residual activity: 83%
PAK7 (human); compound 0.1 µM
  residual activity: 104%
PAK7 (human); compound 1.0 µM
  residual activity: 100%
PAK7 (human); compound 10.0 µM
  residual activity: 101%
[2]; compound 0.1 µM
  residual activity: 114%
[2]; compound 1.0 µM
  residual activity: 108%
[2]; compound 10.0 µM
  residual activity: 100%
CDK2 CCNA2 (human); compound 0.1 µM
  residual activity: 98%
CDK2 CCNA2 (human); compound 1.0 µM
  residual activity: 79%
CDK2 CCNA2 (human); compound 10.0 µM
  residual activity: 88%
RIPK2 (human); compound 0.1 µM
  residual activity: 119%
RIPK2 (human); compound 1.0 µM
  residual activity: 95%
RIPK2 (human); compound 10.0 µM
  residual activity: 100%
EPHB4 (human); compound 0.1 µM
  residual activity: 122%
EPHB4 (human); compound 1.0 µM
  residual activity: 101%
EPHB4 (human); compound 10.0 µM
  residual activity: 123%
IKBKB (human); compound 0.1 µM
  residual activity: 91%
IKBKB (human); compound 1.0 µM
  residual activity: 97%
IKBKB (human); compound 10.0 µM
  residual activity: 100%
RPS6KA3 KD1 KD2 (human); compound 0.1 µM
  residual activity: 87%
RPS6KA3 KD1 KD2 (human); compound 1.0 µM
  residual activity: 95%
RPS6KA3 KD1 KD2 (human); compound 10.0 µM
  residual activity: 81%
PLK1 (human); compound 0.1 µM
  residual activity: 106%
PLK1 (human); compound 1.0 µM
  residual activity: 94%
PLK1 (human); compound 10.0 µM
  residual activity: 96%
MAP2K1 (human); compound 0.1 µM
  residual activity: 97%
MAP2K1 (human); compound 1.0 µM
  residual activity: 102%
MAP2K1 (human); compound 10.0 µM
  residual activity: 97%
BTK (human); compound 1.0 µM
  residual activity: 103%
BTK (human); compound 10.0 µM
  residual activity: 103%
EPHA4 (human); compound 0.1 µM
  residual activity: 100%
EPHA4 (human); compound 1.0 µM
  residual activity: 101%
EPHA4 (human); compound 10.0 µM
  residual activity: 96%
CHEK2 (human); compound 0.1 µM
  residual activity: 92%
CHEK2 (human); compound 1.0 µM
  residual activity: 84%
CHEK2 (human); compound 10.0 µM
  residual activity: 82%
